Measurements published in article PMC5341858, “Molecular regulation of apoptotic machinery and lipid metabolism by mTORC1/mTORC2 dual inhibitors in preclinical models of HER2+/PIK3CAmut breast cancer” (Oncotarget, 2016).

Key:
[1] = system: MDA-MB-453 and 786-O tumors; test: In vivo antitumor efficacy, oral once daily
Description: (§1) Animal studies were performed under protocols approved by Institutional Animal Care and Use Committee (IACUC) of Fudan University. Balbc female nude mice bearing MDA-MB-453, HCC1806 or 786-O tumors were staged at initial tumor volume of 150-200 mm^3 and randomized into treatment groups (n=/>8). […] Lapatinib and Sunitinib were formulated in 0.5% hydroxypropyl methyl cellulose (HPMC)-0.2% tween-80 as homogeneous suspension. All test agents were prepared twice weekly. Mice were dosed orally once daily (qd). Tumor growth inhibition rate (TGI) was calculated: TGI=[1-(Vt-Vi)/(Vc-Vi)]×100, where Vt: tumor volume of drug treated group, Vc: tumor volume of vehicle control group, Vi: initial tumor volume at staging. For biomarker studies, frozen tumors were made lysates and immunoblotted as previously described. For detecting apoptosis, tumors were excised, fixed in 4% formalin for 24 h and embedded in paraffin. Slides were processed for terminal deoxynuleotidyl transferase dUTP nick end labeling (TUNEL) using an assay kit (KeyGen Biotech, KGA7061) following vendor's instruction manual. For IHC staining, tumor slides described above were deparaffinized, rehydrated and permeablized with 1% Triton X-100. Antigens were retrieved with Tris/EDTA (pH 9.0) under microwave heating for 20 min. The slides were blocked in Tris buffered saline with 5% BSA-0.3 M glycine and reacted with anti-CPT1A (Proteintech #15184-1-AP) or anti-P-ACL S455 (Abcam #59297) and detected with peroxidase-conjugated secondary antibody (Jackson # 111-035-003). Images were acquired using Leica microscope (model DMI4000D). Staining levels were analyzed on the basis of mean optical density quantified by software image pro plus 6.0.

CDK9 = target: T1, CDK9 (Homo sapiens, UniProt P50750); test: KINOMEscan binding assay; details: 1000 nM, percent control relative to vehicle
T1 construct: purchased DiscoveRx KINOMEscan
T1 sequence (P50750 whole entry): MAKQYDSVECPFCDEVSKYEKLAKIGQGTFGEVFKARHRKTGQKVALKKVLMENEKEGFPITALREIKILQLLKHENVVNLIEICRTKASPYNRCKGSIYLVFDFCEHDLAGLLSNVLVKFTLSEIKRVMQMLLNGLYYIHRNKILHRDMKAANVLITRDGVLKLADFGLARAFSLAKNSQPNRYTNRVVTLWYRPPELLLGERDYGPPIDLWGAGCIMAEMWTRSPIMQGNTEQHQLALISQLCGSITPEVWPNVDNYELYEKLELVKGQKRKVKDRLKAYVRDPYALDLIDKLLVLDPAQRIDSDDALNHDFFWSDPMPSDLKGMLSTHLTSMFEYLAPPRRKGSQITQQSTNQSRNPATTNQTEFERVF
Text: (§2) IC50 values were generated using Graphpad PRISM 5 software.

[2] = target: T2, ABL1 (E255K)- phosphorylated (Homo sapiens, UniProt P00519, E255K); test: KINOMEscan binding assay; details: 1000 nM, percent control relative to vehicle
T2 construct: purchased DiscoveRx KINOMEscan
Text: as §2

AURKB = target: T3, AURKB (Homo sapiens, UniProt Q96GD4); test: KINOMEscan binding assay; details: 1000 nM, percent control relative to vehicle
T3 construct: purchased DiscoveRx KINOMEscan
T3 sequence (Q96GD4 whole entry): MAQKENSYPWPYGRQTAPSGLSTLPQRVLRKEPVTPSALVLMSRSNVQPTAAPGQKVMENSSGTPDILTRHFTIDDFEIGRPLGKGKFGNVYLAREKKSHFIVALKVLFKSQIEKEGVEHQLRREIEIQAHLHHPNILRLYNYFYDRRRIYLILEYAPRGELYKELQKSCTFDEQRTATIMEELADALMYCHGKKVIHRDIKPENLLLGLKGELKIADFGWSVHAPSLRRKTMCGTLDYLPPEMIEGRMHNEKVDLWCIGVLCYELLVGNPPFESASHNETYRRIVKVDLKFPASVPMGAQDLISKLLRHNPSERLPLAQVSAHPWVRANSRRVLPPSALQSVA
Text: as §2

BRAF = target: T4, BRAF (Homo sapiens, UniProt P15056); test: KINOMEscan binding assay; details: 1000 nM, percent control relative to vehicle
T4 construct: purchased DiscoveRx KINOMEscan
T4 sequence (P15056 whole entry): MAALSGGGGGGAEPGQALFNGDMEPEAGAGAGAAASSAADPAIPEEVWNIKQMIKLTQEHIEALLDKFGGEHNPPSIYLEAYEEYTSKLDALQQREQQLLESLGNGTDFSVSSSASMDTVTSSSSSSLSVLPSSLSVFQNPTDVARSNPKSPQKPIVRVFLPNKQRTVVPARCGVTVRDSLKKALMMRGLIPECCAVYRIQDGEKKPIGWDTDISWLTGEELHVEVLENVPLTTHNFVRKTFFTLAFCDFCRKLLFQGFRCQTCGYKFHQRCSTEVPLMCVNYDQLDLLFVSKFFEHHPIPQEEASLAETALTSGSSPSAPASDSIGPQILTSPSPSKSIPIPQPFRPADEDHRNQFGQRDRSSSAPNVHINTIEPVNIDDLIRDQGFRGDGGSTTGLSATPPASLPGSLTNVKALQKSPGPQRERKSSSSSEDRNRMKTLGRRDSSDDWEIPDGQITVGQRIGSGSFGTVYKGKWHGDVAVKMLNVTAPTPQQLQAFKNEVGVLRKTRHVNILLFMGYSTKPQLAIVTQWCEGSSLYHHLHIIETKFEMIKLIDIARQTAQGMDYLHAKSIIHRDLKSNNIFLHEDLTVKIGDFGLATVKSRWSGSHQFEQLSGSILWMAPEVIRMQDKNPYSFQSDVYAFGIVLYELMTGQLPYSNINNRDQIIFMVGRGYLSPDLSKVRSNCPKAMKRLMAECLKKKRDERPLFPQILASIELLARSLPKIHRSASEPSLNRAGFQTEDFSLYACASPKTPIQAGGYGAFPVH
Text: as §2

PAK2 = target: T5, PAK2 (Homo sapiens, UniProt Q13177); test: KINOMEscan binding assay; details: 1000 nM, percent control relative to vehicle
T5 construct: purchased DiscoveRx KINOMEscan
T5 sequence (Q13177 whole entry): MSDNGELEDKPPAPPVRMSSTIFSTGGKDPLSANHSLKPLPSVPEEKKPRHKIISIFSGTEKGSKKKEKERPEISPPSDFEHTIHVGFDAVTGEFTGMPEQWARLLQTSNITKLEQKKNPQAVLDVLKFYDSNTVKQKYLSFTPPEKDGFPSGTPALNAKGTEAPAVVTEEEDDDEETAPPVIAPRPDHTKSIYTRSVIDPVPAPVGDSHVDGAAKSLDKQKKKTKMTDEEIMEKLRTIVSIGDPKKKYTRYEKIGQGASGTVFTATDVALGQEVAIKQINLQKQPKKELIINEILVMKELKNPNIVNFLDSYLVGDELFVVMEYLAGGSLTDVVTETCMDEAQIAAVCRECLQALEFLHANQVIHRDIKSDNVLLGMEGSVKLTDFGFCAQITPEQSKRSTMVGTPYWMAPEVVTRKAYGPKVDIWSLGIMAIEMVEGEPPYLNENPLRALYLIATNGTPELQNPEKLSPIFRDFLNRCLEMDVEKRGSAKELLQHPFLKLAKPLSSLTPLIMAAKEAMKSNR
Text: as §2

FLT3 = target: T6, FLT3 (Homo sapiens, UniProt P36888); test: KINOMEscan binding assay; details: 1000 nM, percent control relative to vehicle
T6 construct: purchased DiscoveRx KINOMEscan
T6 sequence (P36888 27-993): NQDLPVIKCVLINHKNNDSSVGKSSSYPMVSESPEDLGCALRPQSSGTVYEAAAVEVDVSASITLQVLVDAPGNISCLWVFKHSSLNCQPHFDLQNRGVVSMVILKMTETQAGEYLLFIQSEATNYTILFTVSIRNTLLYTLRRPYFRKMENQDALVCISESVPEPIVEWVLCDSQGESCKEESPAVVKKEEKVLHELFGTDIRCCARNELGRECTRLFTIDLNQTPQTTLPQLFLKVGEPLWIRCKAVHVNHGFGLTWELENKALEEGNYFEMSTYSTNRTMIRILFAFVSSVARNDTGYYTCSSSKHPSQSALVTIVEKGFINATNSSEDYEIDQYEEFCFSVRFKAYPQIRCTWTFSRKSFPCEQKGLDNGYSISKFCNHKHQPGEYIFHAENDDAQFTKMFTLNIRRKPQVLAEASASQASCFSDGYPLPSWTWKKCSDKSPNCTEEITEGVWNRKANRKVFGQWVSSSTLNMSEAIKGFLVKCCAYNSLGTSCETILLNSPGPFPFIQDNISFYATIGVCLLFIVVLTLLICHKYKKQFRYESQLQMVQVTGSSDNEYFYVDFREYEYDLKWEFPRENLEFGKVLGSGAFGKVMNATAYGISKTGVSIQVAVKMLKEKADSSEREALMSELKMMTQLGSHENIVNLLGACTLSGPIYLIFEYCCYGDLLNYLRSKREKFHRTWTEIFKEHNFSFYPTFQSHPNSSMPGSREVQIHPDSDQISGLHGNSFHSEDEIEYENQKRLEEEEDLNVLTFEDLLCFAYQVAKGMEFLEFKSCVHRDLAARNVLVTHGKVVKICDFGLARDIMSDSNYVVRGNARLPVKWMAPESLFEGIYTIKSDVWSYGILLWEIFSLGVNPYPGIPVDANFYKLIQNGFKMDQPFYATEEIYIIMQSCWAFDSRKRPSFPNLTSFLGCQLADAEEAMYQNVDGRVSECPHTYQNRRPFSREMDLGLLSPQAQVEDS
Text: as §2

FGFR3 = target: T7, FGFR3 (Homo sapiens, UniProt P22607); test: KINOMEscan binding assay; details: 1000 nM, percent control relative to vehicle
T7 construct: purchased DiscoveRx KINOMEscan
Text: as §2

CHEK1 = target: T8, CHEK1 (Homo sapiens, UniProt O14757); test: KINOMEscan binding assay; details: 1000 nM, percent control relative to vehicle
T8 construct: purchased DiscoveRx KINOMEscan
Text: as §2

AXL = target: T9, AXL (Homo sapiens, UniProt P30530); test: KINOMEscan binding assay; details: 1000 nM, percent control relative to vehicle
T9 construct: purchased DiscoveRx KINOMEscan
Text: as §2

ERBB2 = target: T10, ERBB2 (Homo sapiens, UniProt P04626); test: KINOMEscan binding assay; details: 1000 nM, percent control relative to vehicle
T10 construct: purchased DiscoveRx KINOMEscan
Text: as §2

BTK = target: T11, BTK (Homo sapiens, UniProt Q06187); test: KINOMEscan binding assay; details: 1000 nM, percent control relative to vehicle
T11 construct: purchased DiscoveRx KINOMEscan
T11 sequence (Q06187 whole entry): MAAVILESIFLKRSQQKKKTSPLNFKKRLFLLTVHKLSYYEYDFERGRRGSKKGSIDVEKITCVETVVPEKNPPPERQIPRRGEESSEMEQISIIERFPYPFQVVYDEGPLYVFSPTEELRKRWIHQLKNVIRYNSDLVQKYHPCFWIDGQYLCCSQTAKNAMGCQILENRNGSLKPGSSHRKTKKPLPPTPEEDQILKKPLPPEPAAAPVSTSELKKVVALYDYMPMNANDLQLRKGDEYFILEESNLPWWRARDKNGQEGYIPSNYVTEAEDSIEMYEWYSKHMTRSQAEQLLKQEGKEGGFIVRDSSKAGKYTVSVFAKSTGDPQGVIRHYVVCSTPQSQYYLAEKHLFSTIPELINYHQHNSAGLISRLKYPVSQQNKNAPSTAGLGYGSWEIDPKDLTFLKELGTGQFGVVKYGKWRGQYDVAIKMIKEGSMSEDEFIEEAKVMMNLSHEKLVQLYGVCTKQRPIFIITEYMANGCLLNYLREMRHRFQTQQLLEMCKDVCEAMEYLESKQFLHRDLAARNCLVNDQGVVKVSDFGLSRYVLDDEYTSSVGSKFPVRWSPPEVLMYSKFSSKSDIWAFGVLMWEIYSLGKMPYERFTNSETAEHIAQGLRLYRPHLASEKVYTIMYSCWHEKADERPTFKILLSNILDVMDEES
Text: as §2

CDK11 = target: T12, CDK11 (Homo sapiens, UniProt Q9BWU1); test: KINOMEscan binding assay; details: 1000 nM, percent control relative to vehicle
T12 construct: purchased DiscoveRx KINOMEscan
Text: as §2

PRKCE = target: T13, PRKCE (Homo sapiens, UniProt Q02156); test: KINOMEscan binding assay; details: 1000 nM, percent control relative to vehicle
T13 construct: purchased DiscoveRx KINOMEscan
Text: as §2

MET = target: T14, MET (Homo sapiens, UniProt P08581); test: KINOMEscan binding assay; details: 1000 nM, percent control relative to vehicle
T14 construct: purchased DiscoveRx KINOMEscan
T14 sequence (P08581 25-1390): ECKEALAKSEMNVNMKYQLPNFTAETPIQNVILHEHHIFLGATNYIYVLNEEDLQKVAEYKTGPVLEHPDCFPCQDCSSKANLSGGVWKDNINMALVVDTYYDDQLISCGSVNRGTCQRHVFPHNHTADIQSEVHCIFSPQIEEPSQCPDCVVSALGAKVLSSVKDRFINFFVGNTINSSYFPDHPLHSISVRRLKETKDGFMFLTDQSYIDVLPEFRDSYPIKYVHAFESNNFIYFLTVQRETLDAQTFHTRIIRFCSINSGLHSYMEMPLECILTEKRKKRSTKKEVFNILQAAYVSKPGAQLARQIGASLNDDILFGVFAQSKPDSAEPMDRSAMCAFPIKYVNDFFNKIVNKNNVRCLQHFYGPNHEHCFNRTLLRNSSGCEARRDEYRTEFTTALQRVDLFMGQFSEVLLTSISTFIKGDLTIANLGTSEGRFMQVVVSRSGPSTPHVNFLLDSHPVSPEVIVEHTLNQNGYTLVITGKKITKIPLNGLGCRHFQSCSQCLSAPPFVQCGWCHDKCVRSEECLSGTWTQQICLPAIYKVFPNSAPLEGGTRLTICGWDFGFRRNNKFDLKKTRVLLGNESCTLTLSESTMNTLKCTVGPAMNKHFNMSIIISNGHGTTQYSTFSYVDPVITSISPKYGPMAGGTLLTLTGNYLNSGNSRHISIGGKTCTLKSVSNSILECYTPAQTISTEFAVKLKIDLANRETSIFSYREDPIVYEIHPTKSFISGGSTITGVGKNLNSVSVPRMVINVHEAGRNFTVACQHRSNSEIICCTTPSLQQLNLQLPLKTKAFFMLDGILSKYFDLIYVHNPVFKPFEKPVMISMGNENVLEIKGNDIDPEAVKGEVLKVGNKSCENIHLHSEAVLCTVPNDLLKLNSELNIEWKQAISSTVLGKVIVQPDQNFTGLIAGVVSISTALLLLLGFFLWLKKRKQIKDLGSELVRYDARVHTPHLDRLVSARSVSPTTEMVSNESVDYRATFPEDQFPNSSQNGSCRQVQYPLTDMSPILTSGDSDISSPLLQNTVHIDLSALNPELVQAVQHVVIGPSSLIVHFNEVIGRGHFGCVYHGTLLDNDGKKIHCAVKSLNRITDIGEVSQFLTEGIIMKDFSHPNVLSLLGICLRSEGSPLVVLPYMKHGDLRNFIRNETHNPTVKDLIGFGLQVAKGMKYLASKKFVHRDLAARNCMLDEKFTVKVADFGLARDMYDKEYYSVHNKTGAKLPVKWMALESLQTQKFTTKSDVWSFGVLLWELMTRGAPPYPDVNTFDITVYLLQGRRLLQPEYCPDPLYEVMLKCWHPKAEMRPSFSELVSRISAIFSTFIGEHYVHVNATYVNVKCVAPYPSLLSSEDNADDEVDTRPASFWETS
Text: as §2

[3] = target: T15, JAK2 (JH1domain-catalytic) (Homo sapiens, UniProt O60674); test: KINOMEscan binding assay; details: 1000 nM, percent control relative to vehicle
T15 construct: JAK2 (JH1domain-catalytic); purchased DiscoveRx KINOMEscan
Text: as §2

ALK = target: T16, ALK (Homo sapiens, UniProt Q9UM73); test: KINOMEscan binding assay; details: 1000 nM, percent control relative to vehicle
T16 construct: purchased DiscoveRx KINOMEscan
Text: as §2

IKK-beta = target: T17, IKK-beta (Homo sapiens, UniProt O14920); test: KINOMEscan binding assay; details: 1000 nM, percent control relative to vehicle
T17 construct: purchased DiscoveRx KINOMEscan
Text: as §2

PLK4 = target: T18, PLK4 (Homo sapiens, UniProt O00444); test: KINOMEscan binding assay; details: 1000 nM, percent control relative to vehicle
T18 construct: purchased DiscoveRx KINOMEscan
Text: as §2

ACVR1B = target: T19, ACVR1B (Homo sapiens, UniProt P36896); test: KINOMEscan binding assay; details: 1000 nM, percent control relative to vehicle
T19 construct: purchased DiscoveRx KINOMEscan
Text: as §2

[4] = target: T20, ABL1 (T315I)- phosphorylated (Homo sapiens, UniProt P00519, T315I); test: KINOMEscan binding assay; details: 1000 nM, percent control relative to vehicle
T20 construct: purchased DiscoveRx KINOMEscan
Text: as §2

DCAMKL1 = target: T21, DCAMKL1 (Homo sapiens, UniProt O15075); test: KINOMEscan binding assay; details: 1000 nM, percent control relative to vehicle
T21 construct: purchased DiscoveRx KINOMEscan
Text: as §2

MDA-MB-453 cells [5] = test: Total cellular acetyl-CoA level; assay type: cell-based; details: 24 h
Description: (§3) Cellular glucose-to-lipid conversion was measured as described. Briefly, cells were pretreated with inhibitors for 2 h, incubated for 2 h in medium containing 2 μCi/mL D-[1-14C] glucose (PerkinElmer, NEC043X001MC). Total lipids were extracted twice with 300 μL hexane:isopropanol (3:2; vol:vol). Cell debris was carefully removed by centrifugation at 14,000 rpm for 5 min using a microcentrifuge. Radioactive lipids were dried, redissolved with 100 μL of chloroform and determined by liquid scintillation counting. A duplicate assay plate without radioactive glucose label was used to count the number of cells per treatment. Glucose to total lipid conversion rate is the radioactive counts from the extracted lipid normalized by the number of cells per hour of ^14C-glucose incubation. For acetyl-CoA assay, cells grown in 96-well plates were washed and lysed in 40 μL/well using lysis buffer. Cell lysates were transferred to V-bottom plates, cleared by centrifugation. 30 μL of the cleared cell lysates were subjected to acetyl-CoA measurement using an acetyl-CoA assay kit (Sigma, MAK-039) following manufacturer's assay manual. Duplicate assay plates were used to count the number of cells per treatment for normalization in determining cellular acetyl-CoA levels.

MDA-MB-453 cells [6] = test: Glucose-to-lipid conversion (de novo lipid synthesis); assay type: cell-based; details: 4 h, saturating dose (5 μM MTI-31, 1 μM rapamycin)
Description: as §3

MDA-MB-231 cells = test: as above; assay type: cell-based; details: similar treatment, 4 h saturating dose
Description: as §3

[7] = system: P-S6 and P-AKT in MDA-MB-453 tumors; test: mTOR biomarkers in tumor tissue (immunoblot); assay type: in vivo, mice
Description: as §1, with “Slides were processed for terminal deoxynuleotidyl transferase dUTP nick end labeling (TUNEL) using an assay kit (KeyGen Biotech, KGA7061) following vendor's instruction manual. For IHC staining, tumor slides described above were deparaffinized, rehydrated and permeablized with 1% Triton X-100. Antigens were retrieved with Tris/EDTA (pH 9.0) under microwave heating for 20 min.” left out, “Images were acquired using Leica microscope (model DMI4000D).” left out

Which results are given for `CNC(=O)c1cccc(-c2ccc3c(N4C5CCC4COC5)nc(N4CCOC[C@@H]4C)nc3n2)c1` [MTI-31]?
tumor growth inhibition (TGI) at MED ([1]; 5 mg/kg oral qd, p<0.01): > 50%; body weight loss at MTD ([1]; 40 mg/kg oral qd, without mortality): 7-15%; tumor response, large size tumors ([1]; nude mice bearing large size MDA-MB-453 tumors, 40 mg/kg qd): rapid and dramatic tumor regression; minimum efficacious dose (MED) ([1]; oral, qd, nude mice, MDA-MB-453 and 786-O models): 5 mg/kg; maximum tolerated dose (MTD) ([1]; oral, qd, nude mice, without mortality): 40 mg/kg; % Control (CDK9): 90%; % Control [2]: 78%; % Control (AURKB): 80%; % Control (BRAF): 80%; % Control (PAK2): 94%; % Control (FLT3): 100%; % Control (FGFR3): 92%; % Control (CHEK1): 83%; % Control (AXL): 97%; % Control (ERBB2): 97%; % Control (BTK): 68%; % Control (CDK11): 100%; % Control (PRKCE): 91%; % Control (MET): 100%; % Control [3]: 88%; % Control (ALK): 78%; % Control (IKK-beta): 69%; % Control (PLK4): 87%; % Control (ACVR1B): 86%; % Control [4]: 76%; % Control (DCAMKL1): 76%; reduction in acetyl-CoA (MDA-MB-453 cells [5]): 67%; suppression of de novo lipid synthesis (14C-glucose-to-lipid conversion rate) (MDA-MB-453 cells [6]): 70%; effect on de novo lipid synthesis (MDA-MB-231 cells): did not significantly reduce lipid synthesis; P-S6 and P-AKT levels in tumor tissue ([7]; 5 mg/kg oral qd): significantly reduced; P-S6 and P-AKT levels in tumor tissue ([7]; 10 mg/kg oral qd): nearly complete suppression
